Results as given in patent publication US20240207362A1 (priority 2022, published 2024).
Entries after “also recorded” stand apart in the source; their conditions may differ.

System: dcLVs
Settings: mouse, in vivo

| Compound | amount of CSF tracer (in dcLV) | contraction or dilation of dcLVs | contraction of dcLVs |
| --- | --- | --- | --- |
| CNC[C@H](O)c1cccc(O)c1 [phenylephrine] | decreased | contracts; also recorded: dosage dependent contraction | – |
| [Cl-].[K+] [potassium chloride] | – | – | strongly but transiently contracted |
